Data as given in US20060057104A1, “Methods for stimulating tlr irf3 pathways for inducing anti-microbial, anti-inflammatory and anticancer responses” (THE Regents of the University of California Office of the …, priority 2002, published 2006).

System: BMMs
Assay: Quantitative real-time PCR gene expression in BMMs, wild-type and IFNAR deficient (Example 2)
Format: cell-based, murine
Settings: for TLR3 mRNA production / TLR4 mRNA production: primary macrophages, by four hours; for TLR3 mRNA production / TLR4 mRNA production / IFN-β and IP10 induction at one hour: poly I:C 1 μg/ml, lipid A 1 ng/ml; for IFI-204 expression at one hour / IFN-β and IP10 induction at one hour: wild type and IFNAR knockout macrophages; for ICAM1 mRNA (induction control): wild-type and knockout cells, one and four hours
Method: Murine BMMs were stimulated with poly(I:C) (10 μg/ml) or lipid A (1 ng/ml) for the indicated times. Total RiNA was isolated and converted to cDNA for quantitative real-time PCR analysis using primers specific for IFN-β, IFI-204, IP10, IκBα, or L32. Experiments were repeated three times, and the data are presented in relative expression units on a log scale, as described in Example 2, infra.
Primary macrophage cells derived from bone marrow cells were stimulated with poly I:C (1 μg/ml) or lipid A (1 ng/ml) for the indicated times, as described in Example 2, infra.
(B) TLR3 and TLR4 mRNA levels were also assessed in cells deficient in IFNAR, and cells stimulated with rIFN-β (10, 100, and 1000 U). Experiments were repeated at least two separate times, and data are presented in relative expression units. L32 was used to normalize all samples.
Both wild-type cells and cells deficient in IFNAR were stimulated with poly I:C (1 μg/ml) or lipid A (1 ng/ml) for either 1 or 4 h. IFN-β, IP10, IFI-204, ICAM1, and L32 mRNA levels were assessed. Data are representative of three independent experiments and presented in relative expression units, as described in Example 2, infra.
Murine bone marrow-derived macrophages (BMMs) were differentiated from marrow as previously described (Doyle, S. E., S. A. Vaidya, R. O'Connell, H. Dadgostar, P. W. Dempsey, T.-T. Wu, G. Rao, R. Sun, M. E. Haberland, R. L. Modlin, and G. Cheng. 2002. IRF3 mediates a TLR3/TLR4-specific antiviral gene program. Immunity 17:251). A129 (IFNAR-1^−/−) (Muller, U., U. Steinhoff, L. F. L. Reis, S. Hemmi, J. Pavlovic, R. M. Zinkernagel, and M. Aguet. 1994. Functional role of type I and type II interferons in antiviral defense. Science 264:1918) and B6129SF2/J wild type control mice were obtained from B&K Universal Ltd. and Jackson Laboratories, respectively. C57/B6 mice were used for all experiments not involving the A129 mice (Jackson Laboratories). Specific TLR activation was achieved using F-583 (Rd mutant) E. coli lipid A for TLR4 (Sigma), CpG oligonucleotides for TLR9 (Invitrogen) and poly I:C for TLR3 (Pharmacia). For experiments employing the TIRAP/MAL inhibitory peptide (CN Biosciences), cells were pretreated for 1 hour with 20 μM peptide or DMSO alone. Cells were then stimulated with PAMPs in the presence of the inhibitory peptide. For experiments using murine rIFN-β (R&D Systems), wild-type macrophage cells were stimulated with 10, 100, or 1000 units. Viral infection and harvest was performed using MHV68 at an M.O.I. of 5 as previously described (Doyle, S. E., S. A. Vaidya, R. O'Connell, H. Dadgostar, P. W. Dempsey, T.-T. Wu, G. Rao, R. Sun, M. E. Haberland, R. L. Modlin, and G. Cheng. 2002. IRF3 mediates a TLR3/TLR4-specific antiviral gene program. Immunity 17:251).
RNA was isolated by standard guanidium isothiocyanate methods. cDNA template for quantitative realtime PCR analysis was then synthesized and PCR was performed using the iCycler thermocycler (Bio-Rad) as previously described (Doyle, S. E., S. A. Vaidya, R. O'Connell, H. Dadgostar, P. W. Dempsey, T.-T. Wu, G. Rao, R. Sun, M. E. Haberland, R. L. Modlin, and G. Cheng. 2002. IRF3 mediates a TLR3/TLR4-specific antiviral gene program. Immunity 17:251). IFN-βIP10, IκBα and IFI-204 primers were the same as those previously described (Doyle, S. E., S. A. Vaidya, R. O'Connell, H. Dadgostar, P. W. Dempsey, T.-T. Wu, G. Rao, R. Sun, M. E. Haberland, R. L. Modlin, and G. Cheng. 2002. IRF3 mediates a TLR3/TLR4-specific antiviral gene program. Immunity 17:251). For other genes, the following primers were used: […]

Row | Substance | expression of MyD88 and TIRAP/MAL | induction of IFN-β, IP10 and IFI-204 relative to TLR4 agonist lipid A (BMMs, up to twelve hours, poly I:C 10 μg/ml vs lipid A 1 ng/ml) | IFI-204 expression by four hours, IFNAR knockout cells | IP10 expression by four hours, IFNAR knockout cells | TLR3 mRNA production | TLR4 mRNA production | IFI-204 expression by four hours, wild type cells | IP10 expression by four hours, wild type cells | IFI-204 expression at one hour | IFN-β and IP10 induction at one hour | ICAM1 mRNA (induction control)
1 | poly I:C | can induce the expression | induced to higher levels and for extended periods of time | not detectable | remained relatively unchanged | caused the induction of TLR3 | but not TLR4 | induced to high levels | significantly enhanced | remained at basal levels | induced by one hour | elevated by one hour and remained high by four hours
2 | lipid A | can induce the expression |  | not detectable | remained relatively unchanged | caused the induction of TLR3 | but not TLR4 | induced to high levels | significantly enhanced | remained at basal levels | induced by one hour | elevated by one hour and remained high by four hours
